#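 96-well plates; 48 h exposure; 5 concentrations. Endpoints by linear interpolation between flanking doses. Not reached: highest tested concentration assigned. At the GI50, growth is halved.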 Active and inactive are the calls of the source. No stated cut-off is given here; in the data, active = GI50 up to about 1.1 µM and inactive = higher.
# Experiments:
# Test in all cases: NCI-60 cell line screen, 48 h
# [1] = tested on: 786-0
# [2] = tested on: A498
# [3] = tested on: A549
# [4] = tested on: ACHN
# [5] = tested on: CAKI-1
# [6] = tested on: CCRF-CEM
# [7] = tested on: COLO 205
# [8] = tested on: DU-145
# [9] = tested on: EKVX
# [10] = tested on: HCC 2998
# [11] = tested on: HCT-116
# [12] = tested on: HCT-15
# [13] = tested on: HOP-62
# [14] = tested on: HT-29
# [15] = tested on: Hs-578T
# [16] = tested on: IGROV-1
# [17] = tested on: K562
# [18] = tested on: KM12
# [19] = tested on: LOX IMVI
# [20] = tested on: M14
# [21] = tested on: MCF7
# [22] = tested on: MDA-MB-231
# [23] = tested on: MDA-MB-435
# [24] = tested on: MDA-N
# [25] = tested on: MOLT-4
# [26] = tested on: Malme-3M
# [27] = tested on: NCI-H226
# [28] = tested on: NCI-H460
# [29] = tested on: NCI-H522
# [30] = tested on: NCI/ADR-RES
# [31] = tested on: OVCAR-3
# [32] = tested on: OVCAR-4
# [33] = tested on: OVCAR-5
# [34] = tested on: OVCAR-8
# [35] = tested on: PC-3
# [36] = tested on: RXF 393
# [37] = tested on: SF-268
# [38] = tested on: SF-295
# [39] = tested on: SF-539
# [40] = tested on: SK-MEL-28
# [41] = tested on: SK-MEL-2
# [42] = tested on: SK-MEL-5
# [43] = tested on: SK-OV-3
# [44] = tested on: SN12C
# [45] = tested on: SNB-19
# [46] = tested on: SNB-75
# [47] = tested on: SR
# [48] = tested on: SW-620
# [49] = tested on: T47D
# [50] = tested on: U-251
# [51] = tested on: HL-60
# [52] = tested on: HOP-92
# [53] = tested on: NCI-H23
# [54] = tested on: RPMI-8226
# [55] = tested on: TK-10
# [56] = tested on: UACC-257
# [57] = tested on: UACC-62
# [58] = tested on: UO-31
smiles,measurement,setting,value
CSc1cc(Cl)c(C)cc1S(=O)(=O)NC(=O)NNc1ccccn1,GI50,[1],> 100 µM (inactive)
same,GI50,[2],> 100 µM (inactive)
same,GI50,[3],> 100 µM (inactive)
same,GI50,[4],> 100 µM (inactive)
same,GI50,[5],> 100 µM (inactive)
same,GI50,[6],> 100 µM (inactive)
same,GI50,[7],> 100 µM (inactive)
same,GI50,[8],> 100 µM (inactive)
same,GI50,[9],> 100 µM (inactive)
same,GI50,[10],> 100 µM (inactive)
same,GI50,[11],> 100 µM (inactive)
same,GI50,[12],> 100 µM
same,GI50,[13],> 100 µM (inactive)
same,GI50,[14],> 100 µM (inactive)
same,GI50,[15],> 100 µM (inactive)
same,GI50,[16],> 100 µM (inactive)
same,GI50,[17],> 100 µM (inactive)
same,GI50,[18],> 100 µM (inactive)
same,GI50,[19],> 100 µM (inactive)
same,GI50,[20],> 100 µM (inactive)
same,GI50,[21],> 100 µM (inactive)
same,GI50,[22],> 100 µM (inactive)
same,GI50,[23],> 100 µM (inactive)
same,GI50,[24],> 100 µM (inactive)
same,GI50,[25],> 100 µM (inactive)
same,GI50,[26],> 100 µM (inactive)
same,GI50,[27],> 100 µM (inactive)
same,GI50,[28],> 100 µM (inactive)
same,GI50,[29],> 100 µM (inactive)
same,GI50,[30],> 100 µM (inactive)
same,GI50,[31],> 100 µM (inactive)
same,GI50,[32],> 100 µM (inactive)
same,GI50,[33],> 100 µM (inactive)
same,GI50,[34],> 100 µM (inactive)
same,GI50,[35],> 100 µM (inactive)
same,GI50,[36],> 100 µM (inactive)
same,GI50,[37],> 100 µM (inactive)
same,GI50,[38],> 100 µM (inactive)
same,GI50,[39],> 100 µM (inactive)
same,GI50,[40],> 100 µM (inactive)
same,GI50,[41],> 100 µM (inactive)
same,GI50,[42],> 100 µM (inactive)
same,GI50,[43],> 100 µM (inactive)
same,GI50,[44],> 100 µM (inactive)
same,GI50,[45],> 100 µM (inactive)
same,GI50,[46],5.21 µM (inactive)
same,GI50,[47],> 100 µM (inactive)
same,GI50,[48],> 100 µM (inactive)
same,GI50,[49],> 100 µM (inactive)
same,GI50,[50],> 100 µM (inactive)
CC1=CC(=O)CC2(C)CCC(C(C)CC(=O)CC(C)C)CC12 (stereo not drawn),GI50,[1],16.4 µM (inactive)
same,GI50,[2],> 100 µM (inactive)
same,GI50,[3],17.8 µM (inactive)
same,GI50,[4],17.4 µM (inactive)
same,GI50,[5],16.4 µM (inactive)
same,GI50,[6],23.9 µM (inactive)
same,GI50,[7],17.3 µM (inactive)
same,GI50,[8],62.4 µM (inactive)
same,GI50,[9],48.9 µM (inactive)
same,GI50,[11],16.1 µM (inactive)
same,GI50,[12],38.6 µM
same,GI50,[51],4.39 µM (inactive)
same,GI50,[52],31.4 µM (inactive)
same,GI50,[14],25.8 µM (inactive)
same,GI50,[15],> 100 µM (inactive)
same,GI50,[16],26.2 µM (inactive)
same,GI50,[17],24.5 µM (inactive)
same,GI50,[18],19 µM (inactive)
same,GI50,[19],18.9 µM (inactive)
same,GI50,[20],17.2 µM (inactive)
same,GI50,[21],25.6 µM (inactive)
same,GI50,[22],42.8 µM (inactive)
same,GI50,[23],20.3 µM (inactive)
same,GI50,[25],18.3 µM (inactive)
same,GI50,[26],24.9 µM (inactive)
same,GI50,[27],24.9 µM (inactive)
same,GI50,[53],35.4 µM (inactive)
same,GI50,[28],32.4 µM (inactive)
same,GI50,[29],15.1 µM (inactive)
same,GI50,[30],29.6 µM (inactive)
same,GI50,[32],> 100 µM (inactive)
same,GI50,[33],> 100 µM (inactive)
same,GI50,[34],24.5 µM (inactive)
same,GI50,[35],19.5 µM (inactive)
same,GI50,[54],20.2 µM (inactive)
same,GI50,[36],23.6 µM (inactive)
same,GI50,[37],55.8 µM (inactive)
same,GI50,[38],32.5 µM (inactive)
same,GI50,[39],16.4 µM (inactive)
same,GI50,[40],26 µM (inactive)
same,GI50,[41],78.9 µM (inactive)
same,GI50,[42],20.4 µM (inactive)
same,GI50,[44],17.7 µM (inactive)
same,GI50,[45],> 100 µM (inactive)
same,GI50,[46],> 100 µM (inactive)
same,GI50,[47],20 µM (inactive)
same,GI50,[48],22.7 µM (inactive)
same,GI50,[55],> 100 µM (inactive)
same,GI50,[50],41.9 µM (inactive)
same,GI50,[56],23.9 µM (inactive)
same,GI50,[57],25.5 µM (inactive)
same,GI50,[58],31.2 µM (inactive)
NCC1Nc2ccccc2[C@@H](O)C1O (stereo partly drawn),GI50,[1],> 100 µM (inactive)
same,GI50,[3],> 100 µM (inactive)
same,GI50,[4],> 100 µM (inactive)
same,GI50,[5],> 100 µM (inactive)
same,GI50,[6],> 100 µM (inactive)
same,GI50,[7],> 100 µM (inactive)
same,GI50,[8],> 100 µM (inactive)
same,GI50,[9],> 100 µM (inactive)
same,GI50,[10],> 100 µM (inactive)
same,GI50,[11],> 100 µM (inactive)
same,GI50,[12],> 100 µM
same,GI50,[51],> 100 µM (inactive)
same,GI50,[13],> 100 µM (inactive)
same,GI50,[52],> 100 µM (inactive)
same,GI50,[14],> 100 µM (inactive)
same,GI50,[15],> 100 µM (inactive)
same,GI50,[16],> 100 µM (inactive)
same,GI50,[17],> 100 µM (inactive)
same,GI50,[18],> 100 µM (inactive)
same,GI50,[19],> 100 µM (inactive)
same,GI50,[20],> 100 µM (inactive)
same,GI50,[21],> 100 µM (inactive)
same,GI50,[22],> 100 µM (inactive)
same,GI50,[23],> 100 µM (inactive)
same,GI50,[24],> 100 µM (inactive)
same,GI50,[25],> 100 µM (inactive)
same,GI50,[26],> 100 µM (inactive)
same,GI50,[27],> 100 µM (inactive)
same,GI50,[53],> 100 µM (inactive)
same,GI50,[28],> 100 µM (inactive)
same,GI50,[30],> 100 µM (inactive)
same,GI50,[31],> 100 µM (inactive)
same,GI50,[32],> 100 µM (inactive)
same,GI50,[33],> 100 µM (inactive)
same,GI50,[34],> 100 µM (inactive)
same,GI50,[35],> 100 µM (inactive)
same,GI50,[54],> 100 µM (inactive)
same,GI50,[36],> 100 µM (inactive)
same,GI50,[37],> 100 µM (inactive)
same,GI50,[38],> 100 µM (inactive)
same,GI50,[39],> 100 µM (inactive)
same,GI50,[40],> 100 µM (inactive)
same,GI50,[41],> 100 µM (inactive)
same,GI50,[42],> 100 µM (inactive)
same,GI50,[43],> 100 µM (inactive)
same,GI50,[44],> 100 µM (inactive)
same,GI50,[45],> 100 µM (inactive)
same,GI50,[46],> 100 µM (inactive)
same,GI50,[47],> 100 µM (inactive)
same,GI50,[48],> 100 µM (inactive)
same,GI50,[49],> 100 µM (inactive)
same,GI50,[55],> 100 µM (inactive)
same,GI50,[50],> 100 µM (inactive)
same,GI50,[56],> 100 µM (inactive)
same,GI50,[57],> 100 µM (inactive)
same,GI50,[58],> 100 µM (inactive)

# Source: ChEMBL document CHEMBL1201862, “PubChem BioAssay data set” (2004)
